How the values were obtained:
[1] = molecular target: PD-1/PD-L1 (Homo sapiens (Human), UniProt Q9NZQ7); experiment: PD-1/PD-L1 Binding Assay (Alphascreen)
Method in brief: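 PD-1/PD-L1 binding detected by anti-6×His acceptor and streptavidin donor beads after 120 min in the dark at 25 °C. Beforehand, the two proteins were incubated 15 min at 25 °C with inhibitor at 0.015–300 nM (1% DMSO). IC50 comes from a log concentration–response curve.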

[2] = Pharmacokinetic Assay, single oral dose 5 mg/kg (Table 12); type: in vivo; conditions: mouse, plasma concentration, C57 female mice, single oral dose 5 mg/kg
Protocol: Adult C57 female mice were received to single-dose of the test compounds with 15% DMSO, 10% Kolliphor^@HS 15 and 75% saline as excipients, the mice (n=3) were giving oral administration (intragastric administration) with the compounds at a dose of 5 mg/kg. Time of blood collection: 30 min, 2 h, 4 h. approximately 0.1 mL of whole blood was collected from retro-orbital venous plexus, and placed into tubes that contained K2-EDTA as an anticoagulant. The whole blood were centrifuged at 4° C. and 4000 rpm for 10 min. The plasma was transferred into centrifuge tubes, and stored at −20° C. until being analyzed. Concentrations of test compounds in the plasma samples were analyzed with liquid chromatography-tandem mass spectrometry (LC-MS/MS). Plasma concentration-time data of individual animals was analyzed using Microsoft Excel 2010.

Sequence of PD-1/PD-L1 (Q9NZQ7 19-238): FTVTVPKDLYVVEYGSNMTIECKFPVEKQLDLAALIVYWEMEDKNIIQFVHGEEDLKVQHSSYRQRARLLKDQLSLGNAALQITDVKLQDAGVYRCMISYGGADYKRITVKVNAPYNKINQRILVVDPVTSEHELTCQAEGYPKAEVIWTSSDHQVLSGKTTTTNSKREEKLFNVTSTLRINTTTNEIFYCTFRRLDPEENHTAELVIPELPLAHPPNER

| Compound | IC50 ([1]; numeric values) [nM] | concentration at 0.5 h [2] [ng/mL] | concentration at 2 h [2] [ng/mL] | concentration at 4 h [2] [ng/mL] | IC50 ([1]; range symbols) [nM] |
| --- | --- | --- | --- | --- | --- |
| Cc1c(-c2nc3cc(CN4CCOCC4)c(OC(F)F)cc3o2)cccc1-c1cccc(-c2nc3cc(CN4CCC[C@H]4C(=O)O)c(OC(F)F)cc3o2)c1C [Example 13, ((6-(difluoromethoxy)-2-(3′-(6-(difluoromethoxy)-5-(morpholinomethyl)benzo[d]oxazol-2-yl)-2,2′-dimethyl-[1,1′-biphenyl]-3-yl)benzo[d]oxazol-5-yl)methyl)-L-proline] | 26 | 79.3 | 241 | 301 | – |
| Cc1c(-c2nc3cc(CNCC(O)C(F)(F)F)c(OC(F)F)cc3o2)cccc1-c1cccc(-c2nc3cc(CN4CCC[C@H]4C(=O)O)c(OC(F)F)cc3o2)c1C (stereo partly drawn) [Example 22, ((6-(difluoromethoxy)-2-(3′-(6-(difluoromethoxy)-5-(((3,3,3-trifluoro-2-hydroxypropyl)amino)methyl)benzo[d]oxazol-2-yl)-2,2′-dimethyl-[1,1′-biphenyl]-3-yl)benzo[d]oxazol-5-yl)methyl)-L-proline] | 25 | 68.6 | 155 | 81.1 | – |
| Cc1c(-c2nc3cc(CN(C)[C@@H]4CCC[C@H]4O)c(OC(F)F)cc3o2)cccc1-c1cccc(-c2nc3cc(CN4CCC[C@H]4C(=O)O)c(OC(F)F)cc3o2)c1C [Example 57, ((6-(difluoromethoxy)-2-(3′-(6-(difluoromethoxy)-5-((((1R,2R)-2-hydroxycyclopentyl) (methyl)amino)methyl)benzo[d]oxazol-2-yl)-2,2′-dimethyl-[1,1′-biphenyl]-3-yl)benzo[d]oxazol-5-yl)methyl)-L-proline] | 1.2 | 27.1 | 149 | 90 | – |
| Cc1c(-c2nc3cc(CN4CCC[C@H]4C(=O)O)c(OC(F)F)cc3o2)cccc1-c1cccc(N2CCC(NCC3(CO)CC3)CC2)c1C [Example 307, ((6-(difluoromethoxy)-2-(3′-(4-(((1-(hydroxymethyl)cyclopropyl)methyl)amino)piperidin-1-yl)-2,2′-dimethyl-[1,1′-biphenyl]-3-yl)benzo[d]oxazol-5-yl)methyl)-L-proline] | – | – | – | – | 0.1 to 5 |
| Cc1c(-c2nc3cc(CN4CCC[C@H]4C(=O)O)c(OC(F)F)cc3o2)cccc1-c1cccc(N2CCC(CN3CC(C)(C)C3)CC2)c1C [Example 308, ((6-(difluoromethoxy)-2-(3′-(4-((3,3-dimethylazetidin-1-yl)methyl)piperidin-1-yl)-2,2′-dimethyl-[1,1′-biphenyl]-3-yl)benzo[d]oxazol-5-yl)methyl)-L-proline] | – | – | – | – | 0.1 to 5 |
| Cc1c(-c2nc3cc(CN4CCC[C@H]4C(=O)O)c(OC(F)F)cc3o2)cccc1-c1cccc(N2CCC(CN3CCCC3)CC2)c1C [Example 309, ((6-(difluoromethoxy)-2-(2,2′-dimethyl-3′-(4-(pyrrolidin-1-ylmethyl)piperidin-1-yl)-[1,1′-biphenyl]-3-yl)benzo[d]oxazol-5-yl)methyl)-L-proline] | – | – | – | – | 0.1 to 5 |
| Cc1c(-c2nc3cc(CN[C@@H]4CCC[C@@H]4O)ccc3o2)cccc1-c1cccc(-c2nc3cc(CN4CCC[C@@H]4C(=O)O)c(OC(F)F)cc3o2)c1C [Example 310, ((6-(difluoromethoxy)-2-(3′-(5-((((1R,2S)-2-hydroxycyclopentyl)amino)methyl)benzo[d]oxazol-2-yl)-2,2′-dimethyl-[1,1′-biphenyl]-3-yl)benzo[d]oxazol-5-yl)methyl)-D-proline] | – | – | – | – | 0.1 to 5 |
| Cc1c(-c2nc3cc(CN4CCCC4(C)C)ccc3o2)cccc1-c1cccc(-c2nc3cc(CN4CCC[C@H]4C(=O)O)c(OC(F)F)cc3o2)c1C [Example 311, ((6-(difluoromethoxy)-2-(3′-(5-((2,2-dimethylpyrrolidin-1-yl)methyl)benzo[d]oxazol-2-yl)-2,2′-dimethyl-[1,1′-biphenyl]-3-yl)benzo[d]oxazol-5-yl)methyl)-L-proline] | – | – | – | – | 0.1 to 5 |
| Cc1c(-c2nc3cc(CN4CC(C)(C)C4)ccc3o2)cccc1-c1cccc(-c2nc3cc(CN4CCC[C@H]4C(=O)O)c(OC(F)F)cc3o2)c1C [Example 312, ((6-(difluoromethoxy)-2-(3′-(5-((3,3-dimethylazetidin-1-yl)methyl)benzo[d]oxazol-2-yl)-2,2′-dimethyl-[1,1′-biphenyl]-3-yl)benzo[d]oxazol-5-yl)methyl)-L-proline] | – | – | – | – | 0.1 to 5 |
| Cc1c(-c2nc3cc(CN4CCC4C)ccc3o2)cccc1-c1cccc(-c2nc3cc(CN4CCC[C@H]4C(=O)O)c(OC(F)F)cc3o2)c1C (stereo partly drawn) [Example 313, ((6-(difluoromethoxy)-2-(2,2′-dimethyl-3′-(5-((2-methylazetidin-1-yl)methyl)benzo[d]oxazol-2-yl)-[1,1′-biphenyl]-3-yl)benzo[d]oxazol-5-yl)methyl)-L-proline] | – | – | – | – | 0.1 to 5 |
| Cc1c(-c2nc3cc(CN4CCC[C@H]4C(=O)O)c(OC(F)F)cc3o2)cccc1-c1cccc(-c2nc3cc(CN4CCC(C(N)=O)C4)cc(C#N)c3o2)c1C (stereo partly drawn) [Example 315, ((2-(3′-(5-((3-carbamoylpyrrolidin-1-yl)methyl)-7-cyanobenzo [d]oxazol-2-yl)-2,2′-dimethyl-[1,1′-biphenyl]-3-yl)-6-(difluoromethoxy)benzo[d]oxazol-5-yl)methyl)-L-proline] | – | – | – | – | 0.1 to 5 |
| Cc1c(-c2nc3cc(CN4CCC[C@H]4C(=O)O)c(OC(F)F)cc3o2)cccc1-c1cccc(-c2nc3cc(CN4CCC(C)(C#N)C4)cc(C#N)c3o2)c1C (stereo partly drawn) [Example 316, ((2-(3′-(7-cyano-5-((3-cyano-3-methylpyrrolidin-1-yl)methyl)benzo[d]oxazol-2-yl)-2,2′-dimethyl-[1,1′-biphenyl]-3-yl)-6-(difluoromethoxy)benzo[d]oxazol-5-yl)methyl)-L-proline] | – | – | – | – | 5 to 50 |

Continued, values first:

| IC50 ([1]; numeric values) [nM] | concentration at 0.5 h [2] [ng/mL] | concentration at 2 h [2] [ng/mL] | concentration at 4 h [2] [ng/mL] | IC50 ([1]; range symbols) [nM] | Compound |
| --- | --- | --- | --- | --- | --- |
| 19 | 80.9 | 221 | 214 | – | Cc1c(-c2nc3cc(CN4CCC(F)C4)c(OC(F)F)cc3o2)cccc1-c1cccc(-c2nc3cc(CN4CCC[C@H]4C(=O)O)c(OC(F)F)cc3o2)c1C (stereo partly drawn) [Example 10, ((6-(difluoromethoxy)-2-(3′-(6-(difluoromethoxy)-5-((3-fluoropyrrolidin-1-yl)methyl)benzo[d]oxazol-2-yl)-2,2′-dimethyl-[1,1′-biphenyl]-3-yl)benzo[d]oxazol-5-yl)methyl)-L-proline] |
| 164 | 303 | 642 | 626 | – | Cc1c(-c2nc3cc(CN4C[C@@H](F)[C@H](F)C4)c(OC(F)F)cc3o2)cccc1-c1cccc(-c2nc3cc(CN4CCC[C@H]4C(=O)O)c(OC(F)F)cc3o2)c1C [Example 18, ((6-(difluoromethoxy)-2-(3′-(6-(difluoromethoxy)-5-(((3R,4R)-3,4-difluoropyrrolidin-1-yl)methyl)benzo[d]oxazol-2-yl)-2,2′-dimethyl-[1,1′-biphenyl]-3-yl)benzo[d]oxazol-5-yl)methyl)-L-proline] |
| 7.7 | 46.2 | 148 | 94.7 | – | Cc1c(-c2nc3cc(CN4CCN(C)C(C)C4)c(OC(F)F)cc3o2)cccc1-c1cccc(-c2nc3cc(CN4CCC[C@H]4C(=O)O)c(OC(F)F)cc3o2)c1C (stereo partly drawn) [Example 23, ((6-(difluoromethoxy)-2-(3′-(6-(difluoromethoxy)-5-((3,4-dimethylpiperazin-1-yl)methyl)benzo[d]oxazol-2-yl)-2,2′-dimethyl-[1,1′-biphenyl]-3-yl)benzo[d]oxazol-5-yl)methyl)-L-proline] |
| 0.83 | 19.9 | 192 | 155 | – | Cc1c(-c2nc3cc(CN4CC(C)C4)c(OC(F)F)cc3o2)cccc1-c1cccc(-c2nc3cc(CN4CCC[C@H]4C(=O)O)c(OC(F)F)cc3o2)c1C [Example 56, ((6-(difluoromethoxy)-2-(3′-(6-(difluoromethoxy)-5-((3-methylazetidin-1-yl)methyl)benzo[d]oxazol-2-yl)-2,2′-dimethyl-[1,1′-biphenyl]-3-yl)benzo[d]oxazol-5-yl)methyl)-L-proline] |
| 1.8 | – | 137 | 111 | – | Cc1c(-c2nc3cc(CN4CCCC4)c(OC(F)F)cc3o2)cccc1-c1cccc(-c2nc3cc(CN4CCC[C@@H]4C(=O)O)c(OC(F)F)cc3o2)c1C [Example 66, ((6-(difluoromethoxy)-2-(3′-(6-(difluoromethoxy)-5-(pyrrolidin-1-ylmethyl)benzo[d]oxazol-2-yl)-2,2′-dimethyl-[1,1′-biphenyl]-3-yl)benzo[d]oxazol-5-yl)methyl)-D-proline] |
| 6.7 | 143 | 418 | 462 | – | Cc1c(-c2nc3cc(CN4CCC(C)(C)C4)c(OC(F)F)cc3o2)cccc1-c1cccc(-c2nc3cc(CN4CCC[C@H]4C(=O)O)c(OC(F)F)cc3o2)c1C [Example 67, ((6-(difluoromethoxy)-2-(3′-(6-(difluoromethoxy)-5-((3,3-dimethylpyrrolidin-1-yl)methyl)benzo[d]oxazol-2-yl)-2,2′-dimethyl-[1,1′-biphenyl]-3-yl)benzo[d]oxazol-5-yl)methyl)-L-proline] |

From patent US12187713B2, “Immunomodulators, compositions and methods thereof” (Betta Pharmaceuticals Co., Ltd, priority 2019, dated 2025)
